Experimental data taken from US20230073777A1, “CYCLIC-AMP RESPONSE ELEMENT BINDING PROTEIN (CBP) AND/OR ADENOVIRAL E1A BINDING PROTEIN OF 300 KDA (P300) DEGRADATION COMPOUNDS AND METHODS OF USE” (CULLGEN (SHANGHAI), INC., priority 2019, published 2023).
Read-outs that look alike come from different tables or passages of the source.

What was measured:
LNCaP cells = assay: LNCaP cell viability assay (CellTiter-Glo); format: cell-based; details: for IC50: Homo sapiens, 72 h, LNCaP prostate cancer cell viability inhibition, 3 days
Description: LNCaP cells seeded in 96-well plates were treated with 10 μM GNE-781 or selected bivalent compounds, i.e. P-001, P-002, and P-019, following a 12-point 3-fold serial dilution. Three days after treatment, cell viability was determined using the CellTiter-Glo kit (Promega) following manufacturer's instructions. Cell viability was normalized to the mean values of 3 replicates of untreated cells. Dose-dependent response was analyzed following the least-squares non-linear regression method using the GraphPad Prism 5.0 software.
LNCaP cells were treated with GNE-781 or selected bivalent compounds for 3 days at indicated concentrations following a 3-fold serial dilution.
Cells were seeded at a density of 5000 cells per well in 96-well assay plates and treated with test compounds following a 12-point 3-fold serial dilution. Three days later, cell viability was determined using the CellTiter-Glo assay kit according to the manufacturer's instructions. The dose-response curves were determined and IC50 values were calculated using the GraphPad Prism software following a nonlinear regression (least squares fit) method.

P300 = P300 (Homo sapiens, UniProt Q09472); assay: Immunoblotting of P300 protein levels in LNCaP or 22RV1 cells; format: cell-based; parameters: LNCaP or 22RV1 cells that express CBP/P300 proteins were treated with GNE-781 or the bivalent compounds; endogenous in cells; host or cells: LNCaP (clone FGC) or 22RV1 cells; details: read-out: Degradation (10 nM)
Description: Specific exemplary bivalent compounds were characterized in LNCaP or 22RV1 cells. LNCaP or 22RV1 cells that express CBP/P300 proteins were treated with GNE-781 or the bivalent compounds disclosed herein (P-001 to P-174) for indicated hours. Cells were collected, lysed and subject to immunoblotting using an antibody specific to P300 or CBP proteins. Tubulin or vinculin was included as the loading control. DMSO was used as the negative control.
Cultured cells or tissue chunks were washed with cold PBS once and lysed in cold RIPA buffer supplemented with protease inhibitors and phosphatase inhibitors (Beyotime Biotechnology). The solutions were then incubated at 4° C. for 30 minutes with gentle agitation to fully lyse cells. Cell lysates were centrifuged at 13,000 rpm for 10 minutes at 4° C. and pellets were discarded. Total protein concentrations in the lysates were determined by BCA assays (Beyotime Biotechnology). Cell lysates were mixed with Laemmli loading buffer to 1× and heated at 99° C. for 5 min. Proteins were resolved on SDS-PAGE and visualized by chemiluminescence. Images were taken by a ChemiDoc MP Imaging system (Bio-Rad). Protein bands were quantitated using the accompanied software provided by Bio-Rad.

[1] = percentage of inhibition of p300 at 10 nM (Table 3)
[2] = percentage of inhibition of p300 at 10 nM (Table 2)

Sequence of P300 (Q09472 whole entry): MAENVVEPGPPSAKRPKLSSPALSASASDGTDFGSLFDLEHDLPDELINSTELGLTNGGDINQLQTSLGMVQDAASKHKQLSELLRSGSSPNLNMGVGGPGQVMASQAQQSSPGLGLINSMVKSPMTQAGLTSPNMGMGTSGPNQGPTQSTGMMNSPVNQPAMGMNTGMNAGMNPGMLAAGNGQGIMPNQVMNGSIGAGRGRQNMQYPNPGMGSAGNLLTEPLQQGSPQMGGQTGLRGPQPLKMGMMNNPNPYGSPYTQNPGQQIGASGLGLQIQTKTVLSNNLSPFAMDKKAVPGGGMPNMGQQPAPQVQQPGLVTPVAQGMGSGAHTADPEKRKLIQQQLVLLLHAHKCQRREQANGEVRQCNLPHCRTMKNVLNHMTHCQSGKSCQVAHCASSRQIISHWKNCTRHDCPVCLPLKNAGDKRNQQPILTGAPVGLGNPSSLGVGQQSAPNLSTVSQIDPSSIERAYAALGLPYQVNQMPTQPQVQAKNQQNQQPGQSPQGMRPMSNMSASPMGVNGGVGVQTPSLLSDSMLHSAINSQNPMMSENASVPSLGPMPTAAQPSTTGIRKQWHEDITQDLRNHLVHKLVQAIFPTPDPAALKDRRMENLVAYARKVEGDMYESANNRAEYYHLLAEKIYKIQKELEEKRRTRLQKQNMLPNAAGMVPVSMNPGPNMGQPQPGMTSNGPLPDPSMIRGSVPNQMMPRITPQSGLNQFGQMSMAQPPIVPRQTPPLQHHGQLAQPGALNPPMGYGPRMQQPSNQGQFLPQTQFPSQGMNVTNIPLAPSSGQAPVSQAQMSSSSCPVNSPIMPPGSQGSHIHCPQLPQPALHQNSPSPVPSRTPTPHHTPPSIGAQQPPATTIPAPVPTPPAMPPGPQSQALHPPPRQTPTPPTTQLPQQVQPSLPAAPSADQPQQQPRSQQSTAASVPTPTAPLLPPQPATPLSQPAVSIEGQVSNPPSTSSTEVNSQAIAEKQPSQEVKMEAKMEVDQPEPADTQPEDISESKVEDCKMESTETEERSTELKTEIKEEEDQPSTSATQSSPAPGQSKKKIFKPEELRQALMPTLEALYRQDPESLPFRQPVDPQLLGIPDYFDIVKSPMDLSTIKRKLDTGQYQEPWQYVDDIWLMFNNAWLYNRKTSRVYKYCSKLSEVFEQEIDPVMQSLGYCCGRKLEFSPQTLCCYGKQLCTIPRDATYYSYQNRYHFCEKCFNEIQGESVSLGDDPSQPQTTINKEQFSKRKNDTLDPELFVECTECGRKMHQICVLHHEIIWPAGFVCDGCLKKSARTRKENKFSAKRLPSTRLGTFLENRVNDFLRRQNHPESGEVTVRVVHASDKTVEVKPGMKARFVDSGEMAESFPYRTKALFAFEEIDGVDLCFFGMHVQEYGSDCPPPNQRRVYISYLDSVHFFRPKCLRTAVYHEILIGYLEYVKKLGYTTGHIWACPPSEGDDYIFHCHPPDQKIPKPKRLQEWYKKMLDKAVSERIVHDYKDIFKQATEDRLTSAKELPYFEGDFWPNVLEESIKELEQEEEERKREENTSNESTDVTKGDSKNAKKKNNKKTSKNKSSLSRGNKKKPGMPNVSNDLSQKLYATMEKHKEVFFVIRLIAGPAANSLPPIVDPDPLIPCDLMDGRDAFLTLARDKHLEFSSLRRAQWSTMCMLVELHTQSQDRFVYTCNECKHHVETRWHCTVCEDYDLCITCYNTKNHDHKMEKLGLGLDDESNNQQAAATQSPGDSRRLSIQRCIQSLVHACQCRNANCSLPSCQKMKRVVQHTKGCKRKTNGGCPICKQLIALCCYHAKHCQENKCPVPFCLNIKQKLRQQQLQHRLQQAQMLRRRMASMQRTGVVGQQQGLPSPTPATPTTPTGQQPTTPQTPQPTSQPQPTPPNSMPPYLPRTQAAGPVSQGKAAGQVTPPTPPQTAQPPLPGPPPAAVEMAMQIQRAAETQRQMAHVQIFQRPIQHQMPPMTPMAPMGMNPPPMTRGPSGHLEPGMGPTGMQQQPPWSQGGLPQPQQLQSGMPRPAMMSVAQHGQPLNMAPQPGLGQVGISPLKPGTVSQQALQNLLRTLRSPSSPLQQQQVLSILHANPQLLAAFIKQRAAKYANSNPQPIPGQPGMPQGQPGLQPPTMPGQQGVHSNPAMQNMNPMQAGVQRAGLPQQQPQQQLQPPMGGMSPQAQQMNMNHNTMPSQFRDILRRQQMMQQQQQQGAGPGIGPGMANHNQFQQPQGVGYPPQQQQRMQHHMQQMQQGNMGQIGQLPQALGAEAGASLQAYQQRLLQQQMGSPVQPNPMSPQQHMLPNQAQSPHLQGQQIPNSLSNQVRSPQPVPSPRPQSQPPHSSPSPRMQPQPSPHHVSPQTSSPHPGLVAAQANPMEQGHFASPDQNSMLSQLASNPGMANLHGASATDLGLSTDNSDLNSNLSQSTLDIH

Compound | IC50 (LNCaP cells; CellTiter-Glo (Table 3)) [nM] | inhibition at 0.01 µM (P300; [1]) [%] | IC50 (LNCaP cells; CellTiter-Glo (Table 2)) [nM] | viability of LNCaP cells (LNCaP cells; from 10 μM, 12-point 3-fold serial dilution, 3 days (FIG. 4)) | inhibition at 0.01 µM (P300; [2]) [%]
CC(=O)N1CCc2c(c(N3CCCc4cc(-c5cnn(C)c5)c(C(F)F)cc43)nn2C2CCN(C(=O)CCN3CCC(CCc4cccc5c4C(=O)N(C4CCC(=O)NC4=O)C5=O)CC3)CC2)C1 (stereo not shown) [P-148, 4-(2-(1-(3-(4-(5-acetyl-3-(7-(difluoromethyl)-6-(1-methyl-1H-pyrazol-4-yl)-3,4-dihydroquinolin-1(2H)-yl)-4,5,6,7-tetrahydro-1H-pyrazolo[4,3-c]pyridin-1-yl)piperidin-1-yl)-3-oxopropyl)piperidin-4-yl)ethyl)-2-(2,6-dioxopiperidin-3-yl)isoindoline-1,3-dione] | 73.3 | > 80 |  |  | 
CC(=O)N1CCc2c(c(N3CCCc4cc(-c5cnn(C)c5)c(C(F)F)cc43)nn2C2CCN(C(=O)CN3CCC(CCCc4cccc5c4C(=O)N(C4CCC(=O)NC4=O)C5=O)CC3)CC2)C1 (stereo not shown) [P-147, 4-(3-(1-(2-(4-(5-acetyl-3-(7-(difluoromethyl)-6-(1-methyl-1H-pyrazol-4-yl)-3,4-dihydroquinolin-1(2H)-yl)-4,5,6,7-tetrahydro-1H-pyrazolo[4,3-c]pyridin-1-yl)piperidin-1-yl)-2-oxoethyl)piperidin-4-yl)propyl)-2-(2,6-dioxopiperidin-3-yl)isoindoline-1,3-dione] | 1.4 | > 80 |  |  | 
CC(=O)N1CCc2c(c(N3CCCc4cc(-c5cnn(C)c5)c(C(F)F)cc43)nn2C2CCN(C(=O)CCCCCCNc3cccc4nnn(C5CCC(=O)NC5=O)c(=O)c34)CC2)C1 (stereo not shown) [P-153, 3-(5-((7-(4-(5-acetyl-3-(7-(difluoromethyl)-6-(1-methyl-1H-pyrazol-4-yl)-3,4-dihydroquinolin-1(2H)-yl)-4,5,6,7-tetrahydro-1H-pyrazolo[4,3-c]pyridin-1-yl)piperidin-1-yl)-7-oxoheptyl)amino)-4-oxobenzo[d] [1,2,3]triazin-3 (4H)-yl)piperidine-2,6-dione] | 3.7 | > 80 |  |  | 
CNC(=O)N1CCc2c(c(N3CCCc4cc(-c5cnn(C)c5)c(C(F)F)cc43)nn2C2CCN(C(=O)CCCCCOc3cccc4c3CN(C3CCC(=O)NC3=O)C4=O)CC2)C1 (stereo not shown) [P-088, 3-(7-(difluoromethyl)-6-(1-methyl-1H-pyrazol-4-yl)-3,4-dihydroquinolin-1(2H)-yl)-1-(1-(6-((2-(2,6-dioxopiperidin-3-yl)-1-oxoisoindolin-4-yl)oxy)hexanoyl)piperidin-4-yl)-N-methyl-1,4,6,7-tetrahydro-5H-pyrazolo[4,3-c]pyridine-5-carboxamide] | 5.5 | > 80 |  |  | 
CNC(=O)N1CCc2c(c(N3CCCc4cc(-c5cnn(C)c5)c(C(F)F)cc43)nn2C2CCN(C(=O)CNc3ccc4c(c3)C(=O)N(C3CCC(=O)NC3=O)C4=O)CC2)C1 (stereo not shown) [P-001, 3-(7-(Difluoromethyl)-6-(1-methyl-1H-pyrazol-4-yl)-3,4-dihydroquinolin-1(2H)-yl)-1-(1-((2-(2,6-dioxopiperidin-3-yl)-1,3-dioxoisoindolin-5-yl)glycyl)piperidin-4-yl)-N-methyl-1,4,6,7-tetrahydro-5H-pyrazolo[4,3-c]pyridine-5-carboxamide] |  |  | 185 | dose-dependently suppressed viability | 50 to 80
CNC(=O)N1CCc2c(c(N3CCCc4cc(-c5cnn(C)c5)c(C(F)F)cc43)nn2C2CCN(C(=O)COCC(=O)N[C@H](C(=O)N3C[C@H](O)C[C@H]3C(=O)NCc3ccc(-c4scnc4C)cc3)C(C)(C)C)CC2)C1 [P-064, 3-(7-(Difluoromethyl)-6-(1-methyl-1H-pyrazol-4-yl)-3,4-dihydroquinolin-1(2H)-yl)-1-(1-(2-(2-(((S)-1-((2S,4R)-4-hydroxy-2-((4-(4-methylthiazol-5-yl)benzyl)carbamoyl)pyrrolidin-1-yl)-3,3-dimethyl-1-oxobutan-2-yl)amino)-2-oxoethoxy)acetyl)piperidin-4-yl)-N-methyl-1,4,6,7-tetrahydro-5H-pyrazolo[4,3-c]pyridine-5-carboxamide] | 57.5 | < 20 |  |  | 
CNC(=O)N1CCc2c(c(N3CCCc4cc(-c5cnn(CC(=O)NCCCCCNc6cccc7c6C(=O)N(C6CCC(=O)NC6=O)C7=O)c5)c(C(F)F)cc43)nn2C2CCOCC2)C1 (stereo not shown) [P-040, 3-(7-(Difluoromethyl)-6-(1-(2-((5-((2-(2,6-dioxopiperidin-3-yl)-1,3-dioxoisoindolin-4-yl)amino)pentyl)amino)-2-oxoethyl)-1H-pyrazol-4-yl)-3,4-dihydroquinolin-1(2H)-yl)-N-methyl-1-(tetrahydro-2H-pyran-4-yl)-1,4,6,7-tetrahydro-5H-pyrazolo[4,3-c]pyridine-5-carboxamide] |  |  | 96.4 |  | < 20
CNC(=O)N1CCc2c(c(N3CCCc4cc(-c5cnn(CC(=O)NCCCCCCCCCCC(=O)N[C@H](C(=O)N6C[C@H](O)C[C@H]6C(=O)NCc6ccc(-c7scnc7C)cc6)C(C)(C)C)c5)c(C(F)F)cc43)nn2C2CCOCC2)C1 [P-050, 3-(7-(Difluoromethyl)-6-(1-(2-((11-(((S)-1-((2S,4R)-4-hydroxy-2-((4-(4-methylthiazol-5-yl)benzyl)carbamoyl)pyrrolidin-1-yl)-3,3-dimethyl-1-oxobutan-2-yl)amino)-11-oxoundecyl)amino)-2-oxoethyl)-1H-pyrazol-4-yl)-3,4-dihydroquinolin-1(2H)-yl)-N-methyl-1-(tetrahydro-2H-pyran-4-yl)-1,4,6,7-tetrahydro-5H-pyrazolo[4,3-c]pyridine-5-carboxamide] |  |  | 111 |  | 20 to 50
CC(=O)N1CCc2c(c(N3CCCc4cc(-c5cnn(C)c5)c(C(F)F)cc43)nn2C2CCN(CCN3CCOC(CNc4cccc5c4C(=O)N(C4CCC(=O)NC4=O)C5=O)C3)CC2)C1 (stereo not shown) [P-142] | 0.3 | > 80 |  |  | 
CC(=O)N1CCc2c(c(N3CCCc4cc(-c5cnn(C)c5)c(C(F)F)cc43)nn2C2CCN(C(=O)CC#CCCNc3cccc4c3C(=O)N(C3CCC(=O)NC3=O)C4=O)CC2)C1 (stereo not shown) [P-171, 4-((6-(4-(5-Acetyl-3-(7-(difluoromethyl)-6-(1-methyl-1H-pyrazol-4-yl)-3,4-dihydroquinolin-1(2H)-yl)-4,5,6,7-tetrahydro-1H-pyrazolo[4,3-c]pyridin-1-yl)piperidin-1-yl)-6-oxohex-3-yn-1-yl)amino)-2-(2,6-dioxopiperidin-3-yl)isoindoline-1,3-dione] | 253 | 20 to 50 |  |  | 
CNC(=O)N1CCc2c(c(N3CCCc4cc(-c5cnn(CC(=O)NCCOCCOCCOCC(=O)N[C@H](C(=O)N6C[C@H](O)C[C@H]6C(=O)NCc6ccc(-c7scnc7C)cc6)C(C)(C)C)c5)c(C(F)F)cc43)nn2C2CCOCC2)C1 [P-076, 3-(7-(Difluoromethyl)-6-(1-((S)-16-((2S,4R)-4-hydroxy-2-((4-(4-methylthiazol-5-yl)benzyl)carbamoyl)pyrrolidine-1-carbonyl)-17,17-dimethyl-2,14-dioxo-6,9,12-trioxa-3,15-diazaoctadecyl)-1H-pyrazol-4-yl)-3,4-dihydroquinolin-1(2H)-yl)-N-methyl-1-(tetrahydro-2H-pyran-4-yl)-1,4,6,7-tetrahydro-5H-pyrazolo[4,3-c]pyridine-5-carboxamide] | > 10000 | < 20 |  |  | 
CC(=O)N1CCc2c(c(N3CCCc4cc(-c5cnn(C)c5)c(C(F)F)cc43)nn2C2CCN(C(=O)CN3CC(CNc4cccc5c4C(=O)N(C4CCC(=O)NC4=O)C5=O)C3)CC2)C1 (stereo not shown) [P-158, 4-(((1-(2-(4-(5-Acetyl-3-(7-(difluoromethyl)-6-(1-methyl-1H-pyrazol-4-yl)-3,4-dihydroquinolin-1(2H)-yl)-4,5,6,7-tetrahydro-1H-pyrazolo[4,3-c]pyridin-1-yl)piperidin-1-yl)-2-oxoethyl)azetidin-3-yl)methyl)amino)-2-(2,6-dioxopiperidin-3-yl)isoindoline-1,3-dione] | 90.1 | < 20 |  |  | 
